Values of other authors in patent US20060148897A1, “Method for sterilization using in situ gelling materials” (priority 2002, published 2006).

Settings: amine group (alpha amine; lysine: side chain epsilon amine)

SMILES	pK
NC(=O)C[C@H](N)C(=O)O [asparagine]	8.8
NCCCC[C@H](N)C(=O)O [lysine]	10.80
